Where two headings read alike, the source gives them in different places.
How the values were obtained:
Type in all cases: cell-based
[1] = system: human esophageal carcinoma (ECA109) cells; assay: Wound healing assay (cell migration); conditions: 10 and 20 μg/mL, 36 hours
Experimental: (§1) In the present invention, garciesculentones A and C (compounds 1 and 2) are evaluated for their cytotoxicity against two human hepatoma carcinoma (SMMC-7721 and HepG2) and two human breast adenocarcinoma cell lines (MCF-7 and MDA-MB-231) using MTT assay, palcitaxel is used as positive control. […] In practice, an effective concentration of the tested compound to kill a target cancer cell in vitro is normally about double of the corresponding IC50 value. In addition, wound healing assay is conducted to test whether two novel compounds could affect cell motility.
Wound healing assay. A wound healing assay was performed by using a modified procedure described previously in Jones, J. I.; Gockerman, A.; Busby, W. H., Jr.; Wright, G.; Clemmons, D. R., Insulin-like growth factor binding protein 1 stimulates cell migration and binds to the alpha 5 beta 1 integrin by means of its Arg-Gly-Asp sequence. Proc Nall Acad Sci USA 1993, 90 (22), 10553-7. Briefly, cells were plated in 24 wells plate at 70% confluence in conditioned medium. […] Cell migration into the wound surface was monitored by Olympus 1X71 microscopy and digitally photographed.

[2] = system: HepG2 (human hepatocellular carcinoma); assay: MTT cytotoxicity assay, HepG2; conditions: HepG2 cells, read-out: Cytotoxicity IC50, HepG 2
Experimental: as §1
(§2) Cytotoxicity Assay. Cytotoxic activities of all isolates were evaluated by MTT assay using SMMC-7721 (human hepatocellular carcinoma), HepG2 (human hepatocellular carcinoma), MCF-7 (human breast adenocarcinoma), and MDA-MB-231 (human breast adenocarcinoma). Paclitaxel was used as positive control. The detailed methodology for cytotoxicity assay has already been described in a previous report in Xia, Z.-X.; Zhang, D.-D.; Liang, S.; Lao, Y.-Z.; Zhang, H.; Tan, H.-S.; Chen, S.-L.; Wang, X.-H.; Xu, H.-X., Bioassay-Guided Isolation of Prenylated Xanthones and Polycyclic Acylphloroglucinols from the Leaves of Garcinia nujiangensis. Journal of Natural Products 2012.

[3] = system: MCF-7 (human breast adenocarcinoma); assay: MTT cytotoxicity assay, MCF-7
Experimental: as §1, §2

[4] = system: MDA-MB-231 (human breast adenocarcinoma); assay: MTT cytotoxicity assay, MDA-MB-231; conditions: MDA-MB-231 cells
Experimental: as §1, §2

[5] = system: SMMC-7721 (human hepatocellular carcinoma); assay: MTT cytotoxicity assay, SMMC-7721; conditions: SMMC-7721 cells
Experimental: as §1, §2

In the case of `CC(C)=CC[C@H]1C[C@@]23C[C@H](CC=C(C)C)C(C)(C)[C@@](CC=C(C)C)(C(=O)C(OC(=O)c4ccc(O)c(O)c4)=C2OC1(C)C)C3=O` (relative stereo) [Compound 1, Garciesculentone A], the “Cell migration into the wound area (antimigration effect)” value [1] is reported as “do not migrate into and completely close the wound”, the IC50 [2] is reported as 43.2 µM and the IC50 ([3]; MCF-7 cells) is reported as 20.3 µM. The IC50 [4] was 16.4 µM and the IC50 [5] was 10.8 µM.

Molecule `CC(=O)O[C@H]1C(=O)[C@@]2(C)[C@H]([C@H](OC(=O)c3ccccc3)[C@]3(O)C[C@H](OC(=O)[C@H](O)[C@@H](NC(=O)c4ccccc4)c4ccccc4)C(C)=C1C3(C)C)[C@]1(OC(C)=O)CO[C@@H]1C[C@@H]2O` [Palcitaxel, Paclitaxel, reference compound] has an IC50 ([2]; Homo sapiens) of 0.0046 µM, an IC50 ([3]; Homo sapiens, MCF7, MCF-7 cells) of 0.0015 µM and an IC50 ([4]; Homo sapiens) of 0.0082 µM. The IC50 ([5]; Homo sapiens) was 0.0091 µM.

Garciesculentone C [Compound 2] was tested, and the “Cell migration into the wound area (antimigration effect)” value [1] was “do not migrate into and completely close the wound”, the IC50 [2] was 21.9 µM and the IC50 ([3]; MCF-7 cells) was 11.1 µM. For the same molecule, the IC50 [4] was 21.5 µM and the IC50 [5] was 17.5 µM.

Source: patent publication US20140194499A1, “Polyprenylated Benzoylphloroglucinols With Anticancer Activity” (Hong Kong Baptist University, priority 2013, published 2014)
